Measured values: patent publication US7314729B2, “Methods and kits for transferases” (Promega Corp., priority 2002, dated 2008)

Experiments:
Type in all cases: biochemical
[1] = target: T1, catalytic subunit of cAMP-dependent protein kinase (PKA) (Bos taurus, UniProt P00517); assay: PKA kinase assay with inhibitors (bis-kemptide R110 substrate, Aminopeptidase M, fluorescence); settings: 0.5 units PKA, 5 μM bis-kemptide, 50 μM ATP; FIG. 2
T1 construct: purchased Promega Corp., Madison, Wis
Method: The kinase activity of the catalytic subunit of cAMP-dependent protein kinase (PKA) from Promega Corp., Madison, Wis. was tested in triplicate in a 96-well plates using the following reaction components: 40 mM Tris-HCl, pH 7.5, 20 mM MgCl2, 0.1 mg/ml bovine serum albumin (BSA), 50 μM ATP, and 5 μM of LRRASLG (SEQ. ID. NO: 1)-R110—GLSARRL, a bis-rhodamine peptide kinase substrate also known as “bis-kemptide.” The final reaction volume was 50 uL. […] All kinase reactions were incubated at room temperature for 20 minutes.
The kinase reactions were terminated by adding a termination/detection reagent (25 ul) containing 100 mM EDTA and 25 mU aminopeptidase M (Calbiochem, San Diego, Calif.).
Enzymatic activity of the kinase was measured by taking a reading of the fluorescence, at the time of addition of actinonin and 3 hrs later to test the stability of the signal, with an excitation at 480 nm and fluorescence emission at 520-530 nm.
PKA Assay With Inhibitors. The effects of various inhibitors of PKA kinase were tested.
Fluorescence was detected with an excitation of 480 nm and fluorescence emission at 520-530 nm.

[2] = target: T2, serine/threonine phosphatase PP2A (Homo sapiens, UniProt P67775); assay: PP2A phosphatase assay with inhibitors (bis-STP-R110 phosphopeptide, Aminopeptidase M)
T2 construct: purchased Promega (Madison, Wis.)
Method: PP2A activity with STP-R-110. The phosphatase activity of phosphatase 2A (PP2A) was carried out in 50 ul volume containing 5 uM of phosphopeptide substrate bis-STP-R110 (RRAT(PO3)VA (SEQ. ID. NO:5)-R110-[…]), 40 mM Tris-HCl, pH 7.5, and 0.1 mg/ml BSA. Phosphatase reactions were initiated by adding the enzyme serine/threonine phosphatase PP2A from Promega (Madison, Wis.). The amount of PP2A added to each reaction was titrated in ½ increments, in a range from 0.0075 ng (0.015 munits) to 7.5 nanograms (15 munits), plus control reactions containing no enzyme. Phosphatase reactions were carried out for 10 minutes at room temperature in 96-well plates.
Phosphatase reactions were terminated with 25 ul of 2 uM okadaic acid ((9,10-Deepithio-9,10-didehydroacanthifolicin) (sodium salt)), a known inhibitor of PP2A. After termination, 25 mU/well of Aminopeptidase M was added in 40 mM Tris buffer, pH 7.5, 0.1 mg/ml BSA. The aminopeptidase reaction was incubated at room temperature, 25° C., for 90 minutes. Fluorescence was read as in Example 1.

[3] = target: T3, tyrosine phosphatase PTP-1B (Homo sapiens, UniProt P18031); assay: PTP-1B phosphatase assay with inhibitors (bis-PTK5p-R110 phosphopeptide, Aminopeptidase M); settings: 25 mU/well PTP-1B, inhibitor zero up to 50 uM; FIG. 10
T3 sequence (P18031 1-435): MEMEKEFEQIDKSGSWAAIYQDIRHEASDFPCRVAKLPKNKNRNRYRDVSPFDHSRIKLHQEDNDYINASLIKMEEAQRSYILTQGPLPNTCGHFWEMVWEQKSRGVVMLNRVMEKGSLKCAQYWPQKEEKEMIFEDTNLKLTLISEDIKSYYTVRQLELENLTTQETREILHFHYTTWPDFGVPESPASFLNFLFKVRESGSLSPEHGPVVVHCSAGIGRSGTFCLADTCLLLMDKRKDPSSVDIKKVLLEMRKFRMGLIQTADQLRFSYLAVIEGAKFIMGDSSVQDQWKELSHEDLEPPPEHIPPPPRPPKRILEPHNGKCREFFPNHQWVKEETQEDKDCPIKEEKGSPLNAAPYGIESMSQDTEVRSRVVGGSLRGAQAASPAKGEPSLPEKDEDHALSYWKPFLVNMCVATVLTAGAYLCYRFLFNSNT
Method: The effect of various inhibitors were tested on the dephosphorylation of bis-PTK5p-R110 by the enzyme tyrosine phosphatase PTP-1B. […] Inhibitors were included in the reactions at concentrations ranging from zero inhibitor up to 50 uM. Phosphatase reactions were initiated by adding PTB-1B, which was added to each reaction at 25 mU/well. Control reactions containing no enzyme were also run.
Phosphatase reactions were terminated with 25 ul of a solution of Na3VO4 and 25 mU/well of Aminopeptidase M. Reactions were incubated at room temperature for 60 minutes.

T2 sequence (P67775 whole entry): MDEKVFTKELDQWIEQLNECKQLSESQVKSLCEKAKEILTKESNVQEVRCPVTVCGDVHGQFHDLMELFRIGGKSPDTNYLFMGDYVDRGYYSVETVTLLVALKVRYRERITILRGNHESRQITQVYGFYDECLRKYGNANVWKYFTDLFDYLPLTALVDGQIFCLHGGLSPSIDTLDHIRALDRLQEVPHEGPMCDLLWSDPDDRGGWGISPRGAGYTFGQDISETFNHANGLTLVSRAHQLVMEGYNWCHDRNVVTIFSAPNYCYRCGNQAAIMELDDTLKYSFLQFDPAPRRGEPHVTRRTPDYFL

Compound	effect on kinase activity of PKA (fluorescence output with increasing inhibitor concentration) [1]	inhibition of dephosphorylation of bis-PTK5p-R110 by PTP-1B [3]	other results
CC1CNCCN1S(=O)(=O)c1cccc2cnccc12 (stereo not drawn) [H7, 1-(5-isoquinolinesulfonyl)-2-methylpiperzine]	without effect		
N#CC(=C(N)Sc1ccccc1N)C(C#N)=C(N)Sc1ccccc1N [U0126, 1,4-diamino-2,3-dicyano-1,4-bis-(2-aminophenylthio)butadiene]	without effect		
C=C1[C@@H](O)[C@@H]2O[C@]3(CC[C@H](/C=C/[C@@H](C)[C@@H]4CC(C)=C[C@@]5(O[C@H](C[C@@](C)(O)C(=O)O)CC[C@H]5O)O4)O3)CC[C@H]2O[C@@H]1[C@@H](O)C[C@H](C)[C@H]1O[C@@]2(CCCCO2)CC[C@H]1C [okadaic acid, 9,10-Deepithio-9,10-didehydroacanthifolicin]			IC50 [2]: < 1 nM; inhibition of dephosphorylation of the substrate by PP2A ([2]; 2 nanograms PP2A (4 munits), 5 uM phosphopeptide substrate, inhibitor zero up to 100 nM, FIG. 7): inhibited
CN[C@@H]1C[C@H]2O[C@@](C)([C@@H]1OC)n1c3ccccc3c3c4c(c5c6ccccc6n2c5c31)C(=O)NC4 [staurosporin, (9S-(9α,10,11β,13α)-2,3,10,11,12,13-Hexahydro-10-methoxy-9-methyl-[1-(methylamino)-epoxy-1H,9H-diindolo[1,2,3-gh:3′,2′,1′-1m]pyrrolo{3,4-j]][1,7]benzodiazonin-1-one)]		had no effect	
Sodium vanadate [Na3VO4]		inhibition of PTP 1B enzyme activity	
